Results as given in patent publication US20240269139A1, “COMPOUNDS FOR TARGETED PROTEIN DEGRADATION OF KINASES” (DANA-FARBER CANCER INSTITUTE, INC., priority 2020, published 2024).
Like-named read-outs stand apart in the source and are kept apart here.

How the values were obtained:
Assay type in all cases: cell-based
[1] = target: T1, protein kinases (human kinome) (Homo sapiens, UniProt O00444)
T1 sequence (O00444 1-970): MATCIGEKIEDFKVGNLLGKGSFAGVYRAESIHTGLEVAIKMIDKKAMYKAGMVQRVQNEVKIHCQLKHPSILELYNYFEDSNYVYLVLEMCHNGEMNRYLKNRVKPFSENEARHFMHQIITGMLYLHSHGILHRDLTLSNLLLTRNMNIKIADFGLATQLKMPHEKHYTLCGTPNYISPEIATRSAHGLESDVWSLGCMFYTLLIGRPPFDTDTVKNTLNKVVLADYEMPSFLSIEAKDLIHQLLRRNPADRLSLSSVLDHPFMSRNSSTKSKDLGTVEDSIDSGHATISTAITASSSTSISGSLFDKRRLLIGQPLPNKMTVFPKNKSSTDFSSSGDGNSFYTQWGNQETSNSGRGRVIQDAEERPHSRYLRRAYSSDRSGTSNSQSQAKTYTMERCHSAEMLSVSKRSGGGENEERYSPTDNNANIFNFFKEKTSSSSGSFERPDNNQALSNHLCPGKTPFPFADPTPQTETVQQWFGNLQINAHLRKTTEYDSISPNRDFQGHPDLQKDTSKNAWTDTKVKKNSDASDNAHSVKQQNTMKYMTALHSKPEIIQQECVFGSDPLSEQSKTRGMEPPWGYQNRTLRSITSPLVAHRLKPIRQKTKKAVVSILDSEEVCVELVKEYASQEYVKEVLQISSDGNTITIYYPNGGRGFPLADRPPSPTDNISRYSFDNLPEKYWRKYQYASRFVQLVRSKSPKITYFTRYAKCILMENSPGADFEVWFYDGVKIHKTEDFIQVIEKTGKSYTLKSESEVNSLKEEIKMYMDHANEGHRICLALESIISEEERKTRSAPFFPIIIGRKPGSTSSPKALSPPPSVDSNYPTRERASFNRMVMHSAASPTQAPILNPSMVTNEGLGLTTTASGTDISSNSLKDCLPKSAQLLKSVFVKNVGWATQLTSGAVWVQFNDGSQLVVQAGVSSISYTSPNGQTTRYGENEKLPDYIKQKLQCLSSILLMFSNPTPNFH

[2] = target: T2, protein kinases (human kinome) (Homo sapiens, UniProt Q8TD19)
T2 sequence (Q8TD19 1-979): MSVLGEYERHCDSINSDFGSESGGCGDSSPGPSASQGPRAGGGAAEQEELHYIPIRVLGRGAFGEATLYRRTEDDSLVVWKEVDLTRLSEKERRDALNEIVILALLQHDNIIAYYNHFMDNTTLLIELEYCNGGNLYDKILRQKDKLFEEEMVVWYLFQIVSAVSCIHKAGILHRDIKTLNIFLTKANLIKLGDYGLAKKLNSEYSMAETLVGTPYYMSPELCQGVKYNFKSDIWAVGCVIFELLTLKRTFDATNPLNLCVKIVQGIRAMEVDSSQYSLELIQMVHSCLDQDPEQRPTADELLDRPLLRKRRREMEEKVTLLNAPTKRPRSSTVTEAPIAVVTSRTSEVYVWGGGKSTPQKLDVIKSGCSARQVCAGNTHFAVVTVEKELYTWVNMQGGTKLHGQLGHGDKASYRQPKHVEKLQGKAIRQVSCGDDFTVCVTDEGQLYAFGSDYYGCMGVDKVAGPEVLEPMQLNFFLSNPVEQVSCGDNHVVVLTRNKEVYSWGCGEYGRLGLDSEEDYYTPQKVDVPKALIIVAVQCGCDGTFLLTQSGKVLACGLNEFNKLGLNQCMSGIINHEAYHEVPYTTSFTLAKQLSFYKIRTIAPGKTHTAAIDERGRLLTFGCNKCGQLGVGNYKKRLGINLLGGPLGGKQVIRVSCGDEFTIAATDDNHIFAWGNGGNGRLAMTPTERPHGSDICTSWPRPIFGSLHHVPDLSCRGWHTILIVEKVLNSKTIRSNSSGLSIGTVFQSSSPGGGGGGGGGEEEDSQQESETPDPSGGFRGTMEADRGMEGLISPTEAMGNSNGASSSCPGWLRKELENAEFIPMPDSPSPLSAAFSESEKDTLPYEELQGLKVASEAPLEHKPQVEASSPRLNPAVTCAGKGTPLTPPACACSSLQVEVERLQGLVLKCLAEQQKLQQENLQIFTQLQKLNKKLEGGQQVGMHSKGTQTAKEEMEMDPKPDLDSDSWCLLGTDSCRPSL

[3] = target: protein kinases (human kinome) (Homo sapiens, UniProt Q05397)
[4] = NEK9 (Q8TD19), experiment wp045, direction down
[5] = NEK9 (Q8TD19), experiment wp117, direction down
[6] = Accession O00444, experiment wp131, direction down
[7] = Accession O00444, experiment wp137, direction down
[8] = PLK4 (O00444), experiment wp137

protein kinases (human kinome) (Homo sapiens, UniProt Q05397), sequence (Q05397 whole entry): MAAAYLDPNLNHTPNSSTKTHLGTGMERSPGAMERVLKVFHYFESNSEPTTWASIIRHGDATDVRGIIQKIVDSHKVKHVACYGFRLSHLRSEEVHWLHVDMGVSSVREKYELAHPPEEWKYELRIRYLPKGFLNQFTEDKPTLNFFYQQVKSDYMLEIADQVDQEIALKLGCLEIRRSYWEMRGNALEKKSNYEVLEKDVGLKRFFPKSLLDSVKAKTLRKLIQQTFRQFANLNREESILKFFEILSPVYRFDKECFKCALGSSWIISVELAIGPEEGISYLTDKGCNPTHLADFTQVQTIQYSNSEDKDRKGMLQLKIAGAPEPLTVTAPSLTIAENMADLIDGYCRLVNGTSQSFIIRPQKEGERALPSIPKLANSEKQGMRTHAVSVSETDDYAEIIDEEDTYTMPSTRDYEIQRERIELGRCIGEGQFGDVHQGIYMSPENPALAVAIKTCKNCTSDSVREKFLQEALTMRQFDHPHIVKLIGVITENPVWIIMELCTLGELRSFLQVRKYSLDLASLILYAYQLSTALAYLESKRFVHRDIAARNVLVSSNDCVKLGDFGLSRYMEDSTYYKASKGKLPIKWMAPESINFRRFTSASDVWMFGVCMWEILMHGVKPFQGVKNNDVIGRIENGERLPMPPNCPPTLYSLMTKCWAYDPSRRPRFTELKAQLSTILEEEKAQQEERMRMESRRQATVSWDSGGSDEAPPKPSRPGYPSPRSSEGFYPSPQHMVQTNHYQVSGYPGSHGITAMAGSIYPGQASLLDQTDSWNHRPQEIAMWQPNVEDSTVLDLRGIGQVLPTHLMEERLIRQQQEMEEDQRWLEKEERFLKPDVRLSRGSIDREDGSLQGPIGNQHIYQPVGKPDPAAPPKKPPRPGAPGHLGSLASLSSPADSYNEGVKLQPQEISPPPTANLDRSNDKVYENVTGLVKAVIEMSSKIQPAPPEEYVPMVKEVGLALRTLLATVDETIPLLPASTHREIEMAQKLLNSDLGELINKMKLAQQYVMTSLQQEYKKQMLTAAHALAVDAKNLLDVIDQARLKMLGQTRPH

## CS(=O)(=O)Nc1cccc(-c2csc3cnc(Nc4ccc(N5CCN(CCCCCOc6cccc7c6C(=O)N(C6CCC(=O)NC6=O)C7=O)CC5)cc4)nc23)c1 (stereo not shown) [DB0614, N-(3-(2-((4-(4-(5-((2-(2,6-Dioxopiperidin-3-yl)-1,3-dioxoisoindolin-4-yl)oxy)pentyl)piperazin-1-yl)phenyl)amino)thieno[3,2-d]pyrimidin-7-yl)phenyl)methanesulfonamide]
[1]; Accession O00444, experiment wp117, direction down
  logFC PLK4: −0.5414
[1]; experiment wp117
  logFC PLK4 (O00444): −0.5414
[2]; [4]
  logFC: −2.74
[2]; [5]
  logFC: −3.006
[2]; NEK9 Q8TD19, experiment wp045
  logFC: −2.74
[2]; NEK9 Q8TD19, experiment wp117
  logFC: −3.006

## Cc1ncsc1-c1ccc([C@H](C)NC(=O)[C@@H]2C[C@@H](O)CN2C(=O)[C@@H](NC(=O)CCOCCOCCN2CCN(c3ccc(Nc4ncc(Cl)c(Nc5ccccc5S(=O)(=O)C(C)C)n4)cc3)CC2)C(C)(C)C)cc1 [FMF.06.098.1]
[1]; [6]
  logFC PLK4: −0.7435
[1]; experiment wp131
  logFC PLK4 (O00444): −0.7435
[3]; PTK2 Q05397, experiment wp114
  logFC: −0.9477
  logFC PTK2: −0.9477

## CS(=O)(=O)Nc1cccc(-c2csc3cnc(Nc4ccc(N5CCN(CCOCCOCCOc6cccc7c6C(=O)N(C6CCC(=O)NC6=O)C7=O)CC5)cc4)nc23)c1 (stereo not shown) [RSS0628]
[2]; [4]
  logFC: −2.438
[2]; NEK9 Q8TD19, experiment wp045
  logFC: −2.438

## Cc1ncsc1-c1ccc([C@H](C)NC(=O)[C@@H]2C[C@@H](O)CN2C(=O)[C@@H](NC(=O)CCCCCN2CCN(c3ccc(Nc4ncc5scc(-c6cccc(NS(C)(=O)=O)c6)c5n4)cc3)CC2)C(C)(C)C)cc1 [RSS0680, (2S,4R)-1-((S)-3,3-Dimethyl-2-(6-(4-(4-((7-(3-(methylsulfonamido)phenyl)thieno[3,2-d]pyrimidin-2-yl)amino)phenyl)piperazin-1-yl)hexanamido)butanoyl)-4-hydroxy-N—((S)-1-(4-(4-methylthiazol-5yl)phenyl)ethyl)pyrrolidine-2-carboxamide]
[2]; NEK9 (Q8TD19), experiment wp080, direction down
  logFC: −1.277
[2]; [5]
  logFC: −1.483
[2]; NEK9 Q8TD19, experiment wp080
  logFC: −1.277
[2]; NEK9 Q8TD19, experiment wp117
  logFC: −1.483

## CC(C)S(=O)(=O)c1ccccc1Nc1nc(Nc2ccc(N3CCN(CCOCCNC(=O)CNc4cccc5c4C(=O)N(C4CCC(=O)NC4=O)C5=O)CC3)cc2)ncc1Cl (stereo not shown) [SK.3.91]
[1]; Accession O00444, experiment wp103, direction down
  logFC PLK4: −1.243
[1]; Accession O00444, experiment wp107, direction down
  logFC PLK4: −1.036
[1]; Accession O00444, experiment wp133, 1 hr, direction down
  logFC PLK4: −0.726
[1]; Accession O00444, experiment wp133, 2 hr, direction down
  logFC PLK4: −1.523
[1]; Accession O00444, experiment wp133, 4 hr, direction down
  logFC PLK4: −2.258
[1]; Accession O00444, experiment wp160, 2 hr, direction down
  logFC PLK4: −0.9266
[1]; Accession O00444, experiment wp160, 4 hr, direction down
  logFC PLK4: −1.169
[1]; PLK4 (O00444), experiment wp133, 1 hr
  logFC PLK4: −0.726
[1]; PLK4 (O00444), experiment wp133, 2 hr
  logFC PLK4: −1.523
[1]; PLK4 (O00444), experiment wp133, 4 hr
  logFC PLK4: −2.258
[1]; PLK4 (O00444), experiment wp160, 2 hr
  logFC PLK4: −0.9266
[1]; PLK4 (O00444), experiment wp160, 4 hr
  logFC PLK4: −1.169
[1]; experiment wp103
  logFC PLK4 (O00444): −1.243
[1]; experiment wp107
  logFC PLK4 (O00444): −1.036
[3]; Accession Q05397, experiment wp105, direction down
  logFC PTK2: −2.958
[3]; PTK2 Q05397, experiment wp105
  logFC PTK2: −2.958
[3]; PTK2 Q05397, experiment wp114
  logFC: −1.684
  logFC PTK2: −1.684
[3]; PTK2 Q05397, experiment wp172
  logFC: −2.689
  logFC PTK2: −2.689

## CC(C)S(=O)(=O)c1ccccc1Nc1nc(Nc2ccc(N3CCN(CCOCCOCCNC(=O)CNc4cccc5c4C(=O)N(C4CCC(=O)NC4=O)C5=O)CC3)cc2)ncc1Cl (stereo not shown) [TL12.186]
[1]; [6]
  logFC PLK4: −1.559
[1]; [7]
  logFC PLK4: −1.159
[1]; [8]
  logFC PLK4: −1.159
[1]; experiment wp131
  logFC PLK4 (O00444): −1.559

## CC(C)S(=O)(=O)c1ccccc1Nc1nc(Nc2ccc(N3CCN(CCOCCOCCC(=O)NCCNc4cccc5c4CN(C4CCC(=O)NC4=O)C5=O)CC3)cc2)ncc1Cl (stereo not shown) [TL13.97]
[1]; [7]
  logFC PLK4: −1.049
[1]; [8]
  logFC PLK4: −1.049

## Cc1cc(Nc2ncc(Br)c(Nc3cccc(F)c3C(N)=O)n2)ccc1S(=O)(=O)NCCOCCOCCOCCOCCNc1cccc2c1C(=O)N(C1CCC(=O)NC1=O)C2=O (stereo not shown) [TMX.02.174]
[3]; PTK2 Q05397, experiment wp146
  logFC: −0.8198
  logFC PTK2: −0.8198
[2]; NEK9 (Q8TD19), experiment wp146, direction down
  logFC: −0.3626
[2]; NEK9 Q8TD19, experiment wp146
  logFC: −0.3626
